Measured values taken from the NIST ThermoML archive (doi:10.1016/j.fluid.2006.06.006).
Values joined by “and” are separate entries in the source; they are usually repeats but may differ in a detail not shown here. Equal values may be shown once. ± gives the expanded uncertainty stated by the source.

Experiment: excess molar enthalpy (molar enthalpy of mixing); xn = mol fraction of the nth substance listed
Details: 323.1 K, Liquid

O=C=O [carbon dioxide] + O
Details | excess molar enthalpy
2060 kPa, x1 = 0.0032 | -0.0113 ± 0.000717 kcal/mol
2060 kPa, x1 = 0.0037 | -0.0131 ± 0.000741 kcal/mol
2060 kPa, x1 = 0.004 | -0.0138 ± 0.000765 kcal/mol
2060 kPa, x1 = 0.0042 | -0.0152 ± 0.000789 kcal/mol
2060 kPa, x1 = 0.0048 | -0.0168 ± 0.000813 kcal/mol
2060 kPa, x1 = 0.0058 | -0.0199 ± 0.000884 kcal/mol
2060 kPa, x1 = 0.006 | -0.022 ± 0.000932 kcal/mol
2060 kPa, x1 = 0.0064 | -0.0216 ± 0.000908 kcal/mol
2060 kPa, x1 = 0.0079 | -0.0221 kcal/mol and -0.0222 kcal/mol
2060 kPa, x1 = 0.0106 | -0.0228 ± 0.000932 kcal/mol
2060 kPa, x1 = 0.0126 | -0.0224 ± 0.000932 kcal/mol
2060 kPa, x1 = 0.0158 | -0.0228 ± 0.000932 kcal/mol
2060 kPa, x1 = 0.021 | -0.0223 ± 0.000932 kcal/mol
2060 kPa, x1 = 0.0311 | -0.0225 ± 0.000932 kcal/mol
5100 kPa, x1 = 0.0052 | -0.0162 ± 0.000813 kcal/mol
5100 kPa, x1 = 0.0064 | -0.02 ± 0.000884 kcal/mol
5100 kPa, x1 = 0.0084 | -0.0261 ± 0.001 kcal/mol
5100 kPa, x1 = 0.0092 | -0.029 ± 0.00108 kcal/mol
5100 kPa, x1 = 0.0101 | -0.0323 ± 0.00112 kcal/mol
5100 kPa, x1 = 0.0105 | -0.0331 ± 0.00115 kcal/mol
5100 kPa, x1 = 0.011 | -0.0344 ± 0.00117 kcal/mol
5100 kPa, x1 = 0.012 | -0.0373 ± 0.00122 kcal/mol
5100 kPa, x1 = 0.0125 | -0.0394 ± 0.00127 kcal/mol
5100 kPa, x1 = 0.0136 | -0.0412 ± 0.00131 kcal/mol
5100 kPa, x1 = 0.0138 | -0.0417 ± 0.00131 kcal/mol
5100 kPa, x1 = 0.0147 | -0.0429 ± 0.00134 kcal/mol
5100 kPa, x1 = 0.0151 | -0.0441 ± 0.00136 kcal/mol
5100 kPa, x1 = 0.0155 | -0.0438 ± 0.00136 kcal/mol
5100 kPa, x1 = 0.0156 | -0.0448 ± 0.00139 kcal/mol
5100 kPa, x1 = 0.0172 | -0.0438 ± 0.00136 kcal/mol
5100 kPa, x1 = 0.0181 | -0.0441 ± 0.00136 kcal/mol
5100 kPa, x1 = 0.019 | -0.0454 ± 0.00139 kcal/mol
5100 kPa, x1 = 0.0201 | -0.0438 ± 0.00136 kcal/mol
5100 kPa, x1 = 0.0208 | -0.0453 ± 0.00139 kcal/mol
5100 kPa, x1 = 0.0254 | -0.0443 ± 0.00136 kcal/mol
10530 kPa, x1 = 0.01 | -0.0178 ± 0.000837 kcal/mol
10530 kPa, x1 = 0.012 | -0.0208 ± 0.000908 kcal/mol
10530 kPa, x1 = 0.0132 | -0.0243 ± 0.00098 kcal/mol
10530 kPa, x1 = 0.0165 | -0.0301 ± 0.00108 kcal/mol
10530 kPa, x1 = 0.0197 | -0.0321 ± 0.00112 kcal/mol
10530 kPa, x1 = 0.023 | -0.0348 ± 0.00117 kcal/mol
10530 kPa, x1 = 0.0249 | -0.0347 ± 0.00117 kcal/mol
10530 kPa, x1 = 0.026 | -0.037 ± 0.00122 kcal/mol
10530 kPa, x1 = 0.0323 | -0.0368 ± 0.00122 kcal/mol
10530 kPa, x1 = 0.0324 | -0.0368 ± 0.00122 kcal/mol
10530 kPa, x1 = 0.0446 | -0.0361 ± 0.0012 kcal/mol
10530 kPa, x1 = 0.0508 | -0.0359 ± 0.0012 kcal/mol
10530 kPa, x1 = 0.0625 | -0.0354 ± 0.0012 kcal/mol
10530 kPa, x1 = 0.0627 | -0.0356 ± 0.0012 kcal/mol
14200 kPa, x1 = 0.0105 | -0.0142 ± 0.000765 kcal/mol
14200 kPa, x1 = 0.0125 | -0.0168 ± 0.000813 kcal/mol
14200 kPa, x1 = 0.0139 | -0.0189 ± 0.00086 kcal/mol
14200 kPa, x1 = 0.0173 | -0.0225 ± 0.000932 kcal/mol
14200 kPa, x1 = 0.0207 | -0.025 ± 0.00098 kcal/mol
14200 kPa, x1 = 0.0241 | -0.0268 ± 0.00103 kcal/mol
14200 kPa, x1 = 0.0248 | -0.027 ± 0.00103 kcal/mol
14200 kPa, x1 = 0.0261 | -0.0277 ± 0.00103 kcal/mol
14200 kPa, x1 = 0.0274 | -0.0279 ± 0.00105 kcal/mol
14200 kPa, x1 = 0.0287 | -0.0288 ± 0.00105 kcal/mol
14200 kPa, x1 = 0.0307 | -0.029 ± 0.00108 kcal/mol
14200 kPa, x1 = 0.034 | -0.0284 ± 0.00105 kcal/mol
14200 kPa, x1 = 0.047 | -0.0283 ± 0.00105 kcal/mol
14200 kPa, x1 = 0.0658 | -0.0279 ± 0.00105 kcal/mol
20200 kPa, x1 = 0.011 | -0.0128 ± 0.000741 kcal/mol
20200 kPa, x1 = 0.0147 | -0.0167 ± 0.000813 kcal/mol
20200 kPa, x1 = 0.0183 | -0.0207 ± 0.000908 kcal/mol
20200 kPa, x1 = 0.0197 | -0.0216 ± 0.000908 kcal/mol
20200 kPa, x1 = 0.021 | -0.0236 ± 0.000956 kcal/mol
20200 kPa, x1 = 0.0239 | -0.0236 ± 0.000956 kcal/mol
20200 kPa, x1 = 0.0253 | -0.0238 ± 0.000956 kcal/mol
